{"source": "patent US10966995B2", "about": "“Use of secoisolariciresinol diglucosides (SDGS) and related compounds for protection against radiation and chemical damage” (THE TRUSTEES OF THE UNIVERSITY OF PENNSYLVANIA, priority 2014, dated 2021)", "key": {"[1]": {"tested_on": "Murine primary lung cells (epithelial cells)", "experiment": "qPCR of Bax and Bcl-2 gene expression after irradiation", "assay_type": "cell-based, mouse", "details": "for Bcl-2 mRNA levels, increase: SDG pre-treated cells", "experimental": "qPCR was performed using TaqMan® Probe-Based Gene Expression Assays supplied by Applied Biosystems, Life Technologies (Carlsbad, Calif.). To evaluate the effect of SDG treatment on the mRNA expression of apoptotic genes, individual TaqMan® gene expression assays were performed for Bax (Mm00432051_m1) and Bcl-2 (Mm00477631_m1).\nBriefly, cells were pre-treated with SDG (50 μM, 6 hrs) and irradiated (2 Gy). Total RNA was isolated from using RNeasy Plus Mini Kit (Qiagen, Valencia, Calif.) and quantified using a NanoDrop 2000 (ThermoFisher Scientific, Waltham, Mass.). Reverse transcription of RNA to cDNA was then performed on a Veriti® Thermal Cycler using the High Capacity RNA to cDNA kit supplied by Applied Biosystems, Life Technologies (Carlsbad, Calif.). qPCR was performed using 25 ng of cDNA per reaction well on a StepOnePlus™ Real-Time PCR System (Applied Biosystems, Life Technologies, Carlsbad, Calif.). Gene expression data was normalized to 18S ribosomal RNA and calibrated to untreated control samples according to the ΔΔCT method."}, "[2]": {"experiment": "Scavenging of γ-radiation-induced hypochlorite (APF/HPF fluorescence in PBS)", "experimental": "The fluorescence of ROS probes APF and HPF in PBS was measured at excitation/emission at 490 nm/515 nm in presence of hypochlorite or after γ-radiation exposure. Data is expressed as relative fluorescence units (RFU)."}, "human mesothelial cells": {"tested_on": "human mesothelial cells", "experiment": "Asbestos-induced ROS (DCF fluorescence) in human mesothelial cells", "assay_type": "cell-based", "details": "asbestos 10 μg crocidolite/cm^2 or H2O2 100 μM; SDG 50 μM", "experimental": "(§1) SDG blunts asbestos-induced ROS secretion by human mesothelial cells in vitro (FIG. 50). Experimental plan for detecting asbestos-induced ROS in cells: (human mesothelial) HM cells or mouse macrophages plated in 20% DMEM for 24 hours; Added 20 μM DCF in HBSS for 1 hour; Supernatant replaced with 1% DMEM containing H2O2 (100 μM), asbestos (10 μg crocidolite/cm^2) and/or SDG (50 μM); and Fluorescence level monitored up to 36 hours post-initiation of asbestos exposure."}, "[3]": {"experiment": "Tolerability of SDG given twice daily for 7 days", "assay_type": "in vivo", "details": "100 mg/Kg given twice daily for 7 days"}, "calf thymus DNA": {"tested_on": "calf thymus DNA", "experiment": "Radiation-induced calf thymus DNA fragmentation assay", "assay_type": "biochemical", "details": "50 Gy", "experimental": "Plasmid DNA (pBR322) or calf thymus DNA samples with or without varying concentrations of SDG (R,R), SDG (S,S) and SDG (commercial) were exposed to γ-radiation with a Mark 1 cesium (Cs-137) irradiator (J. L. Shepherd, San Fernando, Calif.) at a dose rate of 1.7 Gy/min in phosphate buffered saline, pH 7.4 (PBS).\nThe effect of test compounds on radiation-induced strand breaks in DNA was determined using calf thymus DNA (Sigma, St. Louis, Mo.). DNA (500 ng) in PBS (pH 7.4) was mixed with varying concentrations (25-250 μM) of SDG (R,R), SDG (S,S) and SDG (commercial) and irradiated at 50 Gy for 30 min. A second series of experiments were performed at varying concentrations ranging from 0.5-10 μM. Samples were mixed with loading dye and subjected to agarose (1%) gel electrophoresis in TAE buffer (pH, 8.3) at 100 V. The gel was stained with ethidium bromide (0.5 μg/ml) for 40 min, washed for 20 min and then visualized on a UV trans-illuminator (Bio-Rad, Hercules, Calif.). The captured gel images were scanned and the density of the calf thymus DNA fragments was determined by Gel-Pro image analyzer program (Media Cybernetics, Silver Spring, Md.). The density of the low mol. wt (<6,000 bps) and the high mol. wt (>6,000 bps) fragments of calf thymus DNA was expressed as % of the total density (low mol wt.+high mol. wt.)."}, "human epithelial cells": {"tested_on": "human epithelial cells", "experiment": "BaP-induced genotoxic stress (p53 protein levels)", "assay_type": "cell-based", "details": "SDG 5, 10, 25 and 50 μM", "text": "Similarly, SDG prevents genotoxic stress in human epithelial cells exposed to BaP. Exposure of cells to a potent carcinogen such as BaP, induces genotoxic stress as indicated by increased levels of p53 protein (FIG. 25). […] SDG also prevents oxidative DNA damages in human epithelial cells exposed to BaP. Exposure of cells to a potent carcinogen such as BaP, induces oxidative DNA damage as indicated by increased levels of gamma-H2AX, a marker for double-stranded DNA breaks (FIG. 26). […] Furthermore, SDG prevents DNA adduct formation in human epithelial cells exposed to BaP. Exposure of cells to a potent carcinogen such as BaP, induces the formation of DNA adducts (FIG. 27). DNA adducts are pieces of DNA covalently linked to a carcinogen and is directly linked to the development of malignancy. The DNA adduct levels is decreased by the presence of SDG or its metabolites ED and EL given alone or in combination."}, "mouse RAW macrophages": {"tested_on": "mouse RAW macrophages", "experiment": "Asbestos-induced ROS in RAW macrophages", "assay_type": "cell-based", "experimental": "as §1\nAsbestos-Induced Oxidative Stress (ROS release) in Culture RAW Macrophages was evaluated. Cells were treated with the ROS-sensitive dye H2DCFDA for 30 min and then they were exposed to vehicle to 40 μg/cm2 asbestos fibers, or 4 uM hypochlorite solution and fluorescence intensity was measured spectrophotometrically for 90, 150 minutes and 27 hours. Asbestos-induced ROS was generated shortly post asbestos exposure and continued for the duration of the observation period (FIG. 51)."}}, "data": [{"compound": "COc1cc(C[C@@H](CO[C@@H]2O[C@H](CO)[C@@H](O)[C@H](O)[C@H]2O)[C@H](CO[C@@H]2O[C@H](CO)[C@@H](O)[C@H](O)[C@H]2O)Cc2ccc(O)c(OC)c2)ccc1O", "note": "[SDG, secoisolariciresinol diglucoside]", "values": [{"measurement": "IR-induced increase in pro-apoptotic Bax mRNA levels", "setting": "[1]; SDG 50 μM pre-treatment, 2 Gy, 24 and 48 hours post-IR", "value": "significantly (p<0.05) inhibited"}, {"measurement": "Bcl-2 mRNA levels, increase", "setting": "[1]; 24 hours post-IR", "value": 6.6, "unit": "fold"}, {"measurement": "Bcl-2 mRNA levels, increase", "setting": "[1]; 48 hours post-IR", "value": 3.5, "unit": "fold"}, {"measurement": "Ratio APF/HPF", "setting": "[2]", "value": "decreased"}, {"measurement": "ClO^− generation from radiation exposure", "setting": "[2]; 25 and 50 Gy", "value": "blunted"}, {"measurement": "γ-radiation-induced APF and HPF fluorescence", "setting": "[2]; 50 Gy", "value": "dose-dependently decreased"}, {"measurement": "Initial slope for decrease of APF fluorescence", "setting": "[2]; 50 Gy, SDG dose response", "value": "1,816.30"}, {"measurement": "Initial slope for decrease of HPF fluorescence", "setting": "[2]; 50 Gy, SDG dose response", "value": 695.75}, {"measurement": "ROS levels", "setting": "human mesothelial cells", "value": "significantly lowers ROS levels to baseline levels"}, {"measurement": "Intolerance / toxicity", "setting": "[3]", "value": "neither intolerance nor toxicity"}, {"measurement": "Concentration at which maximum radioprotection of genomic DNA is achieved", "setting": "calf thymus DNA", "value": "approximately 5.0 μM"}, {"measurement": "Radioprotective properties of SDG and metabolites compared", "setting": "calf thymus DNA; 10 μM of each agent", "value": "equipotent"}, {"measurement": "p53 protein levels (genotoxic stress)", "setting": "human epithelial cells", "value": "mitigated dose-dependently"}, {"measurement": "Asbestos-induced ROS", "setting": "mouse RAW macrophages", "value": "blocks asbestos-induced ROS"}]}]}
